Data taken from ChEMBL document CHEMBL1201862, “PubChem BioAssay data set” (2004).
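These data come from cells grown in 96-well plates and exposed to compound for 48 hours at five concentrations. GI50 = concentration required for 50% inhibition of growth.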 Calls of active or inactive are those of the source. Cut-off read from the data, not from the text of the source: active = GI50 up to about 1.1 µM and inactive = higher.

Legend:
Experiment in all cases: DTP human tumour cell line panel, 48 h
786-0 = system: 786-0
A498 = system: A498
COLO 205 = system: COLO 205
HCT-116 = system: HCT-116
HOP-92 = system: HOP-92
IGROV-1 = system: IGROV-1
M14 = system: M14
Malme-3M = system: Malme-3M
NCI-H226 = system: NCI-H226
NCI-H522 = system: NCI-H522
SK-MEL-5 = system: SK-MEL-5
SN12C = system: SN12C
SNB-75 = system: SNB-75
TK-10 = system: TK-10

Measured: GI50

COc1ccc(C(=O)CC2=Nc3nnc(CCCCCCCc4nnc5n4C(=O)C(CC(=O)c4ccc(OC)cc4)=N5)n3C2=O)cc1
inactive: 786-0 > 100 µM | A498 > 100 µM | COLO 205 > 100 µM | HCT-116 > 100 µM | HOP-92 > 100 µM | IGROV-1 > 100 µM | M14 > 100 µM | Malme-3M > 100 µM | NCI-H226 > 100 µM | NCI-H522 > 100 µM | SK-MEL-5 > 100 µM | SN12C > 100 µM | SNB-75 31.6 µM | TK-10 > 100 µM

CCOC(OC1=C(C#N)CCCC1)C(CC)[Se]c1ccccc1 (configuration not stated)
inactive: 786-0 17.4 µM | A498 13.6 µM | COLO 205 17.5 µM | HCT-116 14.5 µM | HOP-92 25 µM | IGROV-1 20.7 µM | M14 26.3 µM | Malme-3M 31 µM | NCI-H226 19.4 µM | NCI-H522 14.7 µM | SK-MEL-5 16.4 µM | SN12C 16.3 µM | SNB-75 29.3 µM | TK-10 > 100 µM

CCOC(=O)C(=O)CC1=Nc2ccccc2SC(c2cccc(C)c2)C1 (configuration not stated)
inactive: 786-0 17.9 µM | A498 18.1 µM | COLO 205 > 10 µM | HCT-116 14.7 µM | HOP-92 16 µM | IGROV-1 18.4 µM | M14 18.6 µM | Malme-3M 17.3 µM | NCI-H226 16.9 µM | NCI-H522 17.3 µM | SK-MEL-5 18.2 µM | SN12C 17.1 µM | SNB-75 18.9 µM

Cc1ccc(S(=O)(=O)c2c(N)c3nc4ccccc4n3c3nc4ccccc4nc23)cc1
inactive: 786-0 4.93 µM | COLO 205 > 100 µM | HCT-116 > 100 µM | IGROV-1 > 100 µM | M14 > 100 µM | Malme-3M > 100 µM | NCI-H226 > 100 µM | NCI-H522 > 100 µM | SK-MEL-5 > 100 µM | SN12C > 100 µM | SNB-75 > 100 µM

N#CC(C(=O)CCCC(=O)Nc1ccc(Cl)cc1Cl)c1ccccc1 (configuration not stated)
inactive: 786-0 > 100 µM | COLO 205 > 100 µM | HCT-116 > 100 µM | HOP-92 > 100 µM | IGROV-1 > 100 µM | M14 > 100 µM | Malme-3M > 100 µM | NCI-H226 > 100 µM | SK-MEL-5 > 100 µM | SN12C > 100 µM | TK-10 > 100 µM

COc1cc(C2C(C(=O)Nc3ccc(Cl)c(Cl)c3)=C(C)NC(C)=C2C(=O)Nc2ccc(Cl)c(Cl)c2)ccc1O
inactive: 786-0 12.7 µM | A498 12.2 µM | COLO 205 13.3 µM | HOP-92 2.6 µM | IGROV-1 14.2 µM | M14 12.6 µM | Malme-3M 12.6 µM | NCI-H226 16.7 µM | NCI-H522 3.65 µM | SK-MEL-5 12.2 µM | SN12C 12.3 µM | SNB-75 10.3 µM | TK-10 19.1 µM

C/C=C(/CCCCNCCCC)[Si](C)(C)C
inactive: 786-0 12.5 µM | A498 15.5 µM | COLO 205 11 µM | HCT-116 12.4 µM | HOP-92 6.38 µM | IGROV-1 19.2 µM | M14 14.4 µM | Malme-3M 16.9 µM | NCI-H522 11.9 µM | SK-MEL-5 13.3 µM | SN12C 16.2 µM | SNB-75 13.5 µM | TK-10 15 µM

Cn1cc(NC(=O)c2cc(NC(=O)Nc3cc(C(=O)Nc4cc(C(=O)NCCC(=N)N)n(C)c4)n(C)c3)cn2C)cc1C(=O)NCCC(=N)N
inactive: 786-0 20.7 µM | A498 25.1 µM | COLO 205 33 µM | HCT-116 37.2 µM | HOP-92 42.2 µM | IGROV-1 24.5 µM | M14 20.4 µM | Malme-3M 24.9 µM | SK-MEL-5 17.4 µM | SN12C 86.7 µM | SNB-75 40.5 µM | TK-10 22.5 µM

Nc1nc2c(N)cc(C(F)(F)F)cc2nc1-c1ccccc1
inactive: 786-0 > 100 µM | A498 > 100 µM | COLO 205 > 100 µM | HCT-116 > 100 µM | HOP-92 > 100 µM | IGROV-1 > 100 µM | M14 > 100 µM | Malme-3M > 100 µM | NCI-H226 > 100 µM | NCI-H522 85.3 µM | SK-MEL-5 > 100 µM | SN12C > 100 µM | SNB-75 27.2 µM | TK-10 > 100 µM

CN1c2ccccc2N(C(=O)c2ccccc2)C(CC(=O)O)c2cccn21 (configuration not stated)
inactive: 786-0 > 100 µM | A498 > 100 µM | COLO 205 > 100 µM | HOP-92 19.4 µM | IGROV-1 > 100 µM | M14 > 100 µM | Malme-3M > 100 µM | NCI-H522 > 100 µM | SK-MEL-5 > 100 µM | SN12C > 100 µM | SNB-75 > 100 µM | TK-10 > 100 µM
